The text below walks through data of patent US9532990B2 (Zhejiang DTRM Biopharma Co. Ltd., priority 2014, dated 2017).

The target of one data set is BTK wild type (Homo sapiens (Human), UniProt Q06187). The data set can be described thus: Inhibition assay of BTK kinase activity (HTRF). Format: biochemical. How it is done:
Inhibition Assay of BTK Kinase Activity:
The enzyme reaction mixture of BTK wild type standard HTRF assay contained 1 nM BTK wild type, 1 μM biotin-TK1 peptide, and 30 μM ATP in a buffer. The enzyme reaction were carried out at room temperature for 60 minutes. […] The plates were incubated at room temperature for 60 minutes and then read in the Envision plate reader.
(In general: Time-resolved FRET reads energy transfer from a long-lived donor to a nearby acceptor.)

A further data set has as its system TMD-8 lymphoma xenograft. In words: TMD-8 lymphoma xenograft SCID mouse model. It is filed as in vivo. Particulars: BID, 14 days (FIG. 1); for Antitumor effect: Oral. How it is done: Compounds (Compounds 45 and others) alone and its combinations were evaluated against tumor growth in xenograft models in female CB-17 SCID mice. The TMD-8, DoHH2, WSU-DLCL2 tumor cells were maintained in vitro as a suspension culture in RPMI-1640 medium supplemented with 10% heat inactivated fetal calf serum at 37° C. in an atmosphere of 5% CO2 in air. The tumor cells were routinely subcultured twice weekly. The cells growing in an exponential growth phase were harvested and counted for tumor inoculation. Each mouse was inoculated subcutaneously at the right flank with the tumor cells (10×10^6) in 0.2 ml of PBS with Matrigel (1:1) for tumor development. The treatments were started after the average tumor size reached approximately 100-200 mm^3. Each group consisted of 6-10 tumor-bearing mice. The testing article (vehicle, compound or combination) was orally administrated to the mice according to the predetermined doses for 14-days or 21-days. Animal body weight and tumor volume were measured every 2-or 3-days throughout the treatment.

For data set [1] the following is noted: rats, 40 mg/kg, U.S. FDA NDA 205552 pharmacological review, cited from earlier work.
For data set [2] the following is noted: dogs, 24 mg/kg, U.S. FDA NDA 205552 pharmacological review, cited from earlier work.
The mark [3] stands for this setting: all compounds with IC50 of less 10 nM, read-out: IC50 (BTK).

Where two headings read alike, the source gives them in different places.

BTK wild type, sequence (Q06187 whole entry): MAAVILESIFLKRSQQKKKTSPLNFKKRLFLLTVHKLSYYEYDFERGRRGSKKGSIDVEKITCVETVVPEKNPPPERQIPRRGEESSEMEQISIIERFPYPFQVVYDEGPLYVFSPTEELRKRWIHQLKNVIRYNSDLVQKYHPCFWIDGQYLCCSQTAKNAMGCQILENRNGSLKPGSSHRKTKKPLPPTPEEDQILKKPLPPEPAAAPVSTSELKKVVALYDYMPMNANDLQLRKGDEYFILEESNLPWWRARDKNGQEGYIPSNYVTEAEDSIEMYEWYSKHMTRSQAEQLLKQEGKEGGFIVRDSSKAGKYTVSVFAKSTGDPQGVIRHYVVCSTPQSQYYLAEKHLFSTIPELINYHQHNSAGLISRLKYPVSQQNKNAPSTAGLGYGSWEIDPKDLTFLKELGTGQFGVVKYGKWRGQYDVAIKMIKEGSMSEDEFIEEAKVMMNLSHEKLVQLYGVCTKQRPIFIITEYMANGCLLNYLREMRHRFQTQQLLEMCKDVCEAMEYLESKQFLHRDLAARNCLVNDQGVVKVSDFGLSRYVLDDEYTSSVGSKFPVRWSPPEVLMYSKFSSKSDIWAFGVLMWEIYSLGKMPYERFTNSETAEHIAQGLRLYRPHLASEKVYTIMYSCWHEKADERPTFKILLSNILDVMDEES

On to `C=CC(=O)N1CCC[C@@H](n2nc(-c3ccc(Oc4c(F)c(F)cc(F)c4F)cc3F)c3c(N)ncnc32)C1` [Compound 33, 1-((R)-3-(4-amino-3-(2-fluoro-4-(2,3,5,6-tetrafluorophenoxy)phenyl)-1H-pyrazolo[3,4-d]pyrimidin-1-yl)piperidin-1-yl)prop-2-en-1-one], for which the values for the IC50 at BTK wild type (setting [3]) and on BTK wild type (read-out: BTK IC50) were below 10 nM and 2 nM, respectively. Moreover, the results for the Antitumor effect with TMD-8 lymphoma xenograft (10 mg/kg) and in the data set with TMD-8 lymphoma xenograft (30 mg/kg) were 56% and 77%, respectively. The “TMD-8 tumor growth suppression” value in the data set with TMD-8 lymphoma xenograft (multiple doses, p.o.) is recorded as “significant TMD-8 tumor growth suppressions were dose-depended”.
As for `Nc1ncnc2c1c(-c1ccc(Oc3c(F)c(F)cc(F)c3F)cc1F)nn2[C@@H]1CCN(C(=O)c2nc3ccccc3o2)C1` [Compound 110, ((R)-3-(4-amino-3-(2-fluoro-4-(2,3,5,6-tetrafluorophenoxy)phenyl)-1H-pyrazolo[3,4-d]pyrimidin-1-yl)pyrrolidin-1-yl)(benzo[d]oxazol-2-yl)methanone], the IC50 (as a rule, the concentration that inhibits the measured activity by half) at BTK wild type (read-out: BTK IC50) was 5270 nM.
For the compound `Nc1ncnc2c1c(-c1ccc(Oc3c(F)c(F)cc(F)c3F)cc1F)nn2[C@@H]1CCN(C(=O)CF)C1` [Compound 111, 1-((R)-3-(4-amino-3-(2-fluoro-4-(2,3,5,6-tetrafluorophenoxy)phenyl)-1H-pyrazolo[3,4-d]pyrimidin-1-yl)pyrrolidin-1-yl)-2-fluoroethanone], on BTK wild type (read-out: BTK IC50), the IC50 was determined as 43 nM.
Still for that read-out and setting: the figure for `N#CC(=O)N1CC[C@@H](n2nc(-c3ccc(Oc4c(F)c(F)cc(F)c4F)cc3F)c3c(N)ncnc32)C1` [Compound 112, 2-((R)-3-(4-amino-3-(2-fluoro-4-(2,3,5,6-tetrafluorophenoxy)phenyl)-1H-pyrazolo[3,4-d]pyrimidin-1-yl)pyrrolidin-1-yl)-2-oxoacetonitrile] is 107 nM; for `N#CCN1CC[C@@H](n2nc(-c3ccc(Oc4c(F)c(F)cc(F)c4F)cc3F)c3c(N)ncnc32)C1` [Compound 113, 2-((R)-3-(4-amino-3-(2-fluoro-4-(2,3,5,6-tetrafluorophenoxy)phenyl)-1H-pyrazolo[3,4-d]pyrimidin-1-yl)pyrrolidin-1-yl)acetonitrile] it is 207 nM; for `N#CCCN1CC[C@@H](n2nc(-c3ccc(Oc4c(F)c(F)cc(F)c4F)cc3F)c3c(N)ncnc32)C1` [Compound 114, 3-((R)-3-(4-amino-3-(2-fluoro-4-(2,3,5,6-tetrafluorophenoxy)phenyl)-1H-pyrazolo[3,4-d]pyrimidin-1-yl)pyrrolidin-1-yl)propanenitrile] it is 50 nM.
For `Nc1ncnc2c1c(-c1ccc(Oc3c(F)c(F)cc(F)c3F)cc1F)nn2[C@@H]1CCN(C(=O)NO)C1` [Compound 115, (3R)-3-(4-amino-3-(2-fluoro-4-(2,3,5,6-tetrafluorophenoxy)phenyl)-1H-pyrazolo[3,4-d]pyrimidin-1-yl)-N-hydroxypyrrolidine-1-carboxamide], the IC50 on BTK wild type (read-out: BTK IC50) stood at 13 nM.
Consider `C=CS(=O)(=O)N1CC[C@@H](n2nc(-c3ccc(Oc4c(F)c(F)cc(F)c4F)cc3F)c3c(N)ncnc32)C1` [Compound 116, 3-(2-fluoro-4-(2,3,5,6-tetrafluorophenoxy)phenyl)-1-((R)-1-(vinylsulfonyl)pyrrolidin-3-yl)-1H-pyrazolo[3,4-d]pyrimidin-4-amine], for which the IC50 at BTK wild type (setting [3]) was below 10 nM; on BTK wild type (read-out: BTK IC50), 1 nM.
As for `Nc1ncnc2c1c(-c1ccc(Oc3c(F)c(F)cc(F)c3F)cc1F)nn2[C@@H]1CCN(C(=O)C(=O)O)C1` [Compound 117, 2-((R)-3-(4-amino-3-(2-fluoro-4-(2,3,5,6-tetrafluorophenoxy)phenyl)-1H-pyrazolo[3,4-d]pyrimidin-1-yl)pyrrolidin-1-yl)-2-oxoacetic acid], on BTK wild type (read-out: BTK IC50), the IC50 worked out at 712 nM.
Turning to `N#CN1CC[C@@H](n2nc(-c3ccc(Oc4c(F)c(F)cc(F)c4F)cc3F)c3c(N)ncnc32)C1` [Compound 118], the IC50 on BTK wild type (read-out: BTK IC50) is 57 nM.
As to `Nc1ncnc2c1c(-c1ccc(Oc3c(F)c(F)cc(F)c3F)cc1F)nn2[C@@H]1CCN(C(=O)C(Cl)CO)C1` (stereo partly drawn) [Compound 119], the IC50 on BTK wild type (read-out: BTK IC50) turned out to be 83 nM.
`CC#CC(=O)N1CC[C@@H](n2nc(-c3ccc(Oc4cccc(F)c4)cc3F)c3c(N)ncnc32)C1` [Compound 123, 1-((R)-3-(4-amino-3-(2-fluoro-4-(3-fluorophenoxy)phenyl)-1H-pyrazolo[3,4-d]pyrimidin-1-yl)pyrrolidin-1-yl)but-2-yn-1-one]: at BTK wild type (setting [3]), the IC50 is below 10 nM.
Turning to `C=CC(=O)N1CCC[C@@H](n2nc(-c3ccc(Oc4ccccc4)cc3)c3c(N)ncnc32)C1` [ibrutinib], the “AUC (area under the curve)” value in data set [1] (female) is 3300 ng·h/mL; in data set [1] (male) it was 1,000 h*ng/mL. Moreover, the figures for the AUC in data set [2] (female) and in data set [2] (male) were 1,850 h*ng/mL and 1,780 h*ng/mL, respectively.
